Assay results from patent US9512107B2, “Therapeutically active compositions and their methods of use” (Agios Pharmaceuticals, Inc., priority 2012, dated 2016).
Where a chain is given by its changes, count along the chain named.

How the values were obtained:
[1] = test system: U87MG pLVX-IDH2 R140Q-neo cells; assay: U87MG pLVX-IDH2 R140Q-neo cell based assay, 2-HG in media by LC-MS at 48 hours; conditions: Homo sapiens, U-87 MG
Outline: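 U87MG cells stably expressing IDH2 R140Q were seeded overnight, then exposed to compound at 0.2% final DMSO at 37 °C, 5% CO2. 2-HG in the medium was quantified by LC-MS at 48 h. Growth inhibition was read by CellTiter-Glo luminescence at 72 h.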

IDH2 R140Q = target: T1, IDH2 R140Q (Homo sapiens, UniProt P48735, R140Q); assay: IDH2 R140Q enzymatic assay (cofactor depletion, similar format); format: biochemical; conditions: read-out: Enz R140Q
T1 sequence (P48735 40-452 R140Q): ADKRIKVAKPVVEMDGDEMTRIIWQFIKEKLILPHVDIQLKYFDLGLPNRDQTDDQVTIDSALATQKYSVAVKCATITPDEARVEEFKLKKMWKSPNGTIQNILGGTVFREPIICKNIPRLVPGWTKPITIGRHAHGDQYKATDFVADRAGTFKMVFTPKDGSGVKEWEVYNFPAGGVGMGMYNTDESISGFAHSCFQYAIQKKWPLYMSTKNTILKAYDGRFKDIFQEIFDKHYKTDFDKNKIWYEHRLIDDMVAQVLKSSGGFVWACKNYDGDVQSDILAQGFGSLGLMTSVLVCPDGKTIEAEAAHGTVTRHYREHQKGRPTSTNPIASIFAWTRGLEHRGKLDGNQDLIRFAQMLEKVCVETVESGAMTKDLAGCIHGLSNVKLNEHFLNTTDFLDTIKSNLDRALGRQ

IDH2 R172K = target: T2, IDH2 R172K (Homo sapiens, UniProt P48735, R172K); assay: IDH2 R172K enzymatic assay (NADPH cofactor depletion, diaphorase/resazurin readout); format: biochemical; conditions: read-out: Enz R172K
T2 sequence (P48735 40-452 R172K): T1 sequence (P48735 40-452 R140Q) with Q101R, R133K
Outline: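 Compound was preincubated with IDH2 R172K for 1 h at room temperature, then the reaction was started with substrate mix containing 50 μM NADPH and 6.3 mM α-KG. After another 1 h at room temperature, stop mix with diaphorase and resazurin consumed the remaining NADPH, and resorufin fluorescence was read.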

Row | SMILES | IC50 [1] [nM] | IC50 (IDH2 R140Q) [nM] | IC50 (IDH2 R172K) [nM]
1 | CC(C)Nc1nc(Nc2ccncc2)nc(-c2ccccc2Cl)n1 [Compound 226, 6-(2-chlorophenyl)-N^2-isopropyl-N^4-(pyridin-4-yl)-1,3,5-triazine-2,4-diamine] | 100 to 1000 | < 100 | 100 to 1000
2 | CC(C)Nc1nc(Nc2ccnc(C(F)(F)F)c2)nc(-c2cccc(C(O)C(F)(F)F)c2)n1 (stereo not drawn) [Compound 652, 2,2,2-trifluoro-1-(3-(4-(isopropylamino)-6-((2-(trifluoromethyl)pyridin-4-yl)amino)-1,3,5-triazin-2-yl)phenyl)ethanol] | 100 to 1000 | 100 to 1000 | 100 to 1000
3 | CC1(CNc2nc(Nc3ccnc(C(F)(F)F)c3)nc(-c3cccc(C(F)(F)F)n3)n2)CCCO1 (stereo not drawn) [Compound 531, N-(2-Methyl-tetrahydro-furan-2-ylmethyl)-6-(6-trifluoromethyl-pyridin-2-yl)-N′-(2-trifluoromethyl-pyridin-4-yl)-[1,3,5]triazine-2,4-diamine] | < 100 | 100 to 1000 | < 100
4 | CC(C)Nc1nc(Nc2ccnc(C(F)(F)F)c2)nc(-c2cccc(S(C)(=O)=O)c2)n1 [Compound 657, N-Isopropyl-6-(3-methanesulfonyl-phenyl)-N′-(2-trifluoromethyl-pyridin-4-yl)-[1,3,5]triazine-2,4-diamine] | < 100 | 100 to 1000 | 100 to 1000
5 | COc1ncccc1-c1nc(Nc2ccnc(C(F)(F)F)c2)nc(NC(C)C)n1 [Compound 648, N2-isopropyl-6-(2-methoxypyridin-3-yl)-N4-(2-(trifluoromethyl)pyridin-4-yl)-1,3,5-triazine-2,4-diamine] | < 100 | 100 to 1000 | 100 to 1000
6 | CC1(Nc2nc(Nc3ccnc(C(F)(F)F)c3)nc(-c3cccc(C(F)(F)F)n3)n2)COC1 [Compound 549, N-(3-Methyl-oxetan-3-yl)-6-(6-trifluoromethyl-pyridin-2-yl)-N′-(2-trifluoromethyl-pyridin-4-yl)-[1,3,5]triazine-2,4-diamine] | < 100 | 100 to 1000 | < 100
7 | CC(C)(C)CNc1nc(Nc2cncc(C#N)c2)nc(-c2cccc(Cl)n2)n1 [Compound 498, 5-[4-(6-Chloro-pyridin-2-yl)-6-(2,2-dimethyl-propylamino)-[1,3,5]triazin-2-ylamino]-nicotinonitrile] | 100 to 1000 | 100 to 1000 | 1000 to 10000
8 | CNc1cccc(-c2nc(Nc3cc(F)cc(F)c3)nc(NC(C)C)n2)n1 [Compound 465] | < 100 | 100 to 1000 | < 100
9 | CC(C)Nc1nc(Nc2ccc(S(C)(=O)=O)cc2)nc(-c2ccccc2)n1 [Compound 452, N2-isopropyl-N4-(4-(methylsulfonyl)phenyl)-6-phenyl-1,3,5-triazine-2,4-diamine] | 1000 to 10000 | 100 to 1000 | > 10000
10 | CC(C)Nc1nc(Nc2cncc(F)c2)nc(-c2cccc(N)n2)n1 [Compound 470, 6-(6-Amino-pyridin-2-yl)-N-(5-fluoro-pyridin-3-yl)-N′-isopropyl-[1,3,5]triazine-2,4-diamine] | < 100 | 100 to 1000 | 100 to 1000
11 | Cn1nccc1Nc1nc(Nc2ccnc(C(F)(F)F)c2)nc(-c2cccc(C(F)(F)F)n2)n1 [Compound 544, N-(2-Methyl-2H-pyrazol-3-yl)-6-(6-trifluoromethyl-pyridin-2-yl)-N′-(2-trifluoromethyl-pyridin-4-yl)-[1,3,5]triazine-2,4-diamine] | < 100 | 100 to 1000 | 100 to 1000
12 | CC#Cc1cccc(-c2nc(Nc3cc(F)cc(F)c3)nc(NC(C)C)n2)n1 [Compound 463, N-(3,5-Difluoro-phenyl)-N′-isopropyl-6-(6-prop-1-ynyl-pyridin-2-yl)-[1,3,5]triazine-2,4-diamine] | < 100 | 100 to 1000 | < 100
13 | CC(C)OCC(=O)Nc1nc(Nc2ccccc2)nc(-c2ccccc2)n1 [Compound 244, 2-isopropoxy-N-(4-phenyl-6-(phenylamino)-1,3,5-triazin-2-yl)acetamide] | 1000 to 10000 | 100 to 1000 | 100 to 1000
14 | CC(CO)Nc1nc(Nc2ccnc(C(F)(F)F)c2)nc(-c2cccc(C(F)(F)F)n2)n1 (stereo not drawn) [Compound 527, 2-[4-(6-Trifluoromethyl-pyridin-2-yl)-6-(2-trifluoromethyl-pyridin-4-ylamino)-[1,3,5]triazin-2-ylamino]-propan-1-ol] | < 100 | 100 to 1000 | < 100
15 | c1ccc(-c2nc(NCC3CC3)nc(Nc3ccncc3)n2)cc1 [Compound 216, N^2-(cyclopropylmethyl)-6-phenyl-N^4-(pyridin-4-yl)-1,3,5-triazine-2,4-diamine] | 100 to 1000 | < 100 | 100 to 1000
16 | CC1CC1Nc1nc(Nc2ccncc2)nc(-c2ccccc2)n1 (stereo not drawn) [Compound 219, N^2-(2-methylcyclopropyl)-6-phenyl-N^4-(pyridin-4-yl)-1,3,5-triazine-2,4-diamine] | < 100 | < 100 | 100 to 1000
17 | CC(C)(O)CNc1nc(Nc2ccnc(C(C)(C)C#N)c2)nc(-c2cccc(C(F)(F)F)n2)n1 [Compound 678, 2-{4-[4-(2-Hydroxy-2-methyl-propylamino)-6-(6-trifluoromethyl-pyridin-2-yl)-[1,3,5]triazin-2-ylamino]-pyridin-2-yl}-2-methyl-propionitrile] | < 100 | 1000 to 10000 | 100 to 1000
18 | CC(C)Nc1nc(Nc2ccnc(C(F)(F)F)c2)nc(-c2cc(F)cc(Cl)c2)n1 [Compound 647, 6-(3-chloro-5-fluorophenyl)-N2-isopropyl-N4-(2-(trifluoromethyl)pyridin-4-yl)-1,3,5-triazine-2,4-diamine] | < 100 | 100 to 1000 | 100 to 1000
19 | CC(C)(C)Nc1nc(Nc2ccnc(C3CC3)c2)nc(-c2cccc(C(F)(F)F)n2)n1 [Compound 564, N-tert-Butyl-N′-(2-cyclopropyl-pyridin-4-yl)-6-(6-trifluoromethyl-pyridin-2-yl)-[1,3,5]triazine-2,4-diamine] | < 100 | 100 to 1000 | < 100
20 | FC(F)(F)c1cc(Nc2nc(NC3C4COCC43)nc(-c3cccc(C(F)(F)F)n3)n2)ccn1 (stereo not drawn) [Compound 504, N-(3-Oxa-bicyclo[3.1.0]hex-6-yl)-N′-(2-trifluoromethyl-pyridin-4-yl)-6-(6-trifluoromethyl-pyridin-2-yl)-[1,3,5]triazine-2,4-diamine] | < 100 | 100 to 1000 | < 100
21 | COCc1cccc(Nc2nc(NC(C)C)nc(-c3ccccc3)n2)c1 [Compound 195, N^2-isopropyl-N^4-(3-(methoxymethyl)phenyl)-6-phenyl-1,3,5-triazine-2,4-diamine] | < 100 | < 100 | 100 to 1000
22 | CC(C)(C)Nc1nc(Nc2ccnc(C(C)(F)F)c2)nc(-c2cccc(C(F)(F)F)n2)n1 [Compound 567, N-tert-Butyl-N′-[2-(1,1-difluoro-ethyl)-pyridin-4-yl]-6-(6-trifluoromethyl-pyridin-2-yl)-[1,3,5]triazine-2,4-diamine] | < 100 | 100 to 1000 | < 100
23 | c1ccc(Nc2nc(NCC3CCO3)nc(-c3ccccc3)n2)cc1 (stereo not drawn) [Compound 237, N^2-(oxetan-2-ylmethyl)-N^4,6-diphenyl-1,3,5-triazine-2,4-diamine] | 100 to 1000 | 100 to 1000 | 1000 to 10000
24 | CC(C)Nc1nc(Nc2cncnc2)nc(-c2ccccc2)n1 [Compound 266, N^2-isopropyl-6-phenyl-N^4-(pyrimidin-5-yl)-1,3,5-triazine-2,4-diamine] | 100 to 1000 | < 100 | 1000 to 10000
25 | CC(F)(F)c1cc(Nc2nc(NCC3CC3)nc(-c3cccc(C(F)(F)F)n3)n2)ccn1 [Compound 604, N2-(cyclopropylmethyl)-N4-(2-(1,1-difluoroethyl)pyridin-4-yl)-6-(6-(trifluoromethyl)pyridin-2-yl)-1,3,5-triazine-2,4-diamine] | < 100 | 100 to 1000 | < 100
26 | CC(C)Nc1nc(Nc2cncc(F)c2)nc(-c2ccccc2F)n1 [Compound 374, 6-(2-fluorophenyl)-N^2-(5-fluoropyridin-3-yl)-N^4-isopropyl-1,3,5-triazine-2,4-diamine] | < 100 | < 100 | < 100
